Marks after values point to notes of the source that are not given here.
Legend:
A549 cells [1] = assay: Xenograft Study 1: A549 subcutaneous tumors in nude mice, intratumoral injection; format: in vivo; conditions: for Tumor volume 3 weeks after injection (mm^3 ± S.E.M.): first dose day 25, double dose day 32, mean, N=10, initial volume 496; for Reduction in tumor volume vs. vehicle (%): 3 weeks after injection
Procedure: A549 cells were injected subcutaneously to nude mice and allowed to grow to an estimated tumor volume of about 500 mm^3 as determined by caliper. The mice were divided into four groups (N=10 per group), dosed twice via intratumoral injection with either a vehicle (comprising water for injection, benzyl alcohol, propylene glycol, and Tween-80) or with 1 mg, 2.5 mg, or 5 mg of 5-(3, 6-dibromo-9H-carbazol-9-yl)-N,N,N-trimethylpentan-1-aminium chloride according to the experimental design shown in Table 1 below:
(§1) For three weeks post-injection, tumor size was determined by caliper and tumor volume was calculated. Mean tumor volumes for the various cohorts are summarized in Table 2 below and graphically in FIG. 1 (arrows indicate treatment days), while the mice's change in body weight is summarized in FIG. 2.

A549 cells [2] = assay: Xenograft Study 2: A549 subcutaneous tumors in nude mice, intratumoral injection; format: in vivo
Procedure: A549 cells were injected subcutaneously to nude mice and allowed to grow to an estimated tumor volume of about 300 mm^3 as determined by caliper. The mice were divided into three groups (N=10 per group), dosed three times via intratumoral injection with either a vehicle (comprising water for injection, benzyl alcohol, propylene glycol, and Tween-80) or with 5 mg of […])-N,N,N-trimethylpentan-1-aminium chloride, or not injected at all, according to the experimental design shown in Table 3 below:
as §1, with “Median” for “Mean”, “4” for “2”, “3” for “1”, “4.” for “2.”

[3] = 5 mg intratumoral, dosed three times

`C[N+](C)(C)CCCCCn1c2ccc(Br)cc2c2cc(Br)ccc21` [Test Compound, 5-(3,6-dibromo-9H-carbazol-9-yl)-N,N,N-trimethylpentan-1-aminium chloride] was tested, and the “Tumor volume 3 weeks after injection (mm^3 ± S.E.M.)” value (A549 cells [1]; 1 mg/mouse intratumoral) was 1753 (±80) mm^3, the “Reduction in tumor volume vs. vehicle (%)” value (A549 cells [1]; 1 mg/mouse intratumoral, P-value vs. vehicle 0.86) was 7.7% and the “Tumor volume 3 weeks after injection (mm^3 ± S.E.M.)” value (A549 cells [1]; 2.5 mg/mouse intratumoral) was 1512 (±149) mm^3. The “Reduction in tumor volume vs. vehicle (%)” value (A549 cells [1]; 2.5 mg/mouse intratumoral, P-value vs. vehicle 0.17) was 20.4%, the “Effect on mouse body weight” value (A549 cells [1]; 5 mg intratumoral, dosed twice) was “did not affect mouse body weight” and the “Effect on tumor size” value (A549 cells [1]; 5 mg intratumoral, dosed twice) was “significantly reduced tumor size”. The “Tumor volume 3 weeks after injection (mm^3 ± S.E.M.)” value (A549 cells [1]; 5 mg/mouse intratumoral) was 1309 (±229) mm^3, the “Reduction in tumor volume vs. vehicle (%)” value (A549 cells [1]; 5 mg/mouse intratumoral, P-value vs. vehicle 0.03) was 31.1* % and the “Effect on mouse body weight” value (A549 cells [2]; [3]) was “did not affect mouse body weight”. The “Effect on tumor size” value (A549 cells [2]; [3]) was “significantly reduced tumor size”, the “Reduction in tumor volume vs. non-injected group (%)” value (A549 cells [2]; 5 mg/mouse intratumoral once a week for 3 weeks, P-value vs. non-injected group 0.02) was 46* % and the Tumor volume 3 weeks after injection (median) (A549 cells [2]; 5 mg/mouse intratumoral once a week for 3 weeks, median, N=10, initial volume 287) was 648 mm³.

Source: patent publication US20220323411A1, “COMPOSITIONS FOR THE TREATMENT OF SOLID TUMORS” (Raziel Therapeutics Ltd., priority 2019, published 2022)
